In patent US20070110714A1 (priority 2003, published 2007):

Columns and labels:
[1] = system: pseudo type VSV-E1E2; format: cell-based
[2] = system: VSV? G-G; format: cell-based
[3] = system: MDC; format: cell-based, human
[4] = system: Monocyte-derived DCs from HCV-infected patients (HCV-DC); assay: MICA/B expression in stimulated DC by flow cytometry (HCV-DC); format: cell-based, human; details: HCV-DC stimulated 24 hours with cytokine at day 6
[5] = system: Monocyte-derived DCs from healthy donors (N-DC); assay: MICA/B expression in stimulated DC by flow cytometry (N-DC); format: cell-based, human; details: N-DC stimulated 24 hours with cytokine at day 6
[6] = system: HCV-DC; assay: Cytokine production of stimulated HCV-DC, ELISA of culture supernatant; format: cell-based, human; details: HCV-DC cultured 24 hours with 50 ng/ml IL-15
Experimental: (§1) N-DC and HCV-DC were stimulated with IFNa (1000 U/mL) for 24 hours(n=5 for each group). IL-15, IL-12p70, TNFa and IL-1β in each culture supernatant were measured by solid phase sandwich ELISA using a couple of specific monoclonal antibodies and a recombinant cytokine standard substance (IFNa/β, IL-12p70, TNFa and IL-1β, Endogen, Wobum, Mass.; IL-15, BD-Pharmingen). The limit thresholds of detection of these ELISA systems are as described below: IL-15, 3.7 pg/mL; IFNa/β, 17.5 pg/mL; IL-12p70, TNFa and IL-1β, 8.8 pg/mL.
(§2) N-DC and HCV-DC were cultured for 24 hours together with 50 ng/ml IL-15 in the presence or absence of an anti-IFNa/βR neutralization antibody (30 μg/mL)(n=5 for each group). IFNa and IFNβ in each culture supernatant were measured by ELISA.

[7] = system: NK cells; assay: NK cell activation by co-culture with stimulated HCV-DC; format: cell-based, human; details: NK cells co-cultured with cytokine-stimulated HCV-DC
Experimental: (§3) NK cells were isolated from PBM of a healthy donor, and labeled with a concentrated antibody cocktail for NK cell, then, labeled with magnetic colloid (StemCell Technologies (Vancouver, BC, Canada)). 90% or more of the cells were CD56+CD3-lymphocytes. The concentrated NK cells were cultured with RPMI 1640 medium supplemented with 10% FCS and 10 U/mL penicillin/streptomycin, in a 24-well culture dish (5.0×10^5/well). DCs from a healthy individual (N-DC) or a HCV-infected individual (HCV-DC) were stimulated with IFNa (1000 U/mL) or IL-15 (50 ng/mL) for 24 hours, added to a well at a concentration of 1.0×10^5/mL, and co-cultured together with NK cells for 24 hours.
The cytolysis assay was carried out as described below. Target cells (K562) labeled with ^51Cr were incubated for 4 hours at various effecter/target ratios, in NK/DC co-culturing (with or without trans well system) or NK cell single culturing. After incubation, the supernatant was recovered, and ? counting was conducted. […] The cytolysis activity was calculated according to the following formula: Lysis %=(experimental value of release−natural release)×100/(maximum release−natural release)
Intracellular IFN? expression of an NK cell was assayed as described below. […] The stained cells were analyzed by flow cytometry. […]

[8] = system: N-DC; assay: Cytokine production of stimulated N-DC, ELISA of culture supernatant; format: cell-based, human; details: N-DC cultured 24 hours with 50 ng/ml IL-15
Experimental: as §1, §2

[9] = system: NK cells; assay: NK cell activation by co-culture with stimulated N-DC (K562 cytolytic assay, intracellular IFN? expression); format: cell-based, human
Experimental: as §3
(§4) The cytolysis assay was carried out as described below. Target cells (K562) labeled with ^51Cr were incubated for 4 hours at various effecter/target ratios, in NK/DC co-culturing (with or without trans well system) or NK cell single culturing. After incubation, the supernatant was recovered, and ? counting was conducted. Maximum release or natural release was defined as counting from a sample incubated with 5% Triton-X or a sample incubated with only the medium, respectively. The cytolysis activity was calculated according to the following formula: Lysis %=(experimental value of release−natural release)×100/(maximum release−natural release)
(§5) Intracellular IFN? expression of an NK cell was assayed as described below. NK cells cultured for 24 hours together with DC as described above were incubated together with 10 ng/ml PMA and 1 μmol/L ionomycin (Sigma Aldrich). Next, after incubation at 37° C. for 4 hours in the presence of 1 μl/mL GolgiPlug (registered trademark)(BD-Phanmngen), NK cells were stained at 4° C. for 30 minutes with a PE-labeled CD56 monoclonal antibody. The cells were treated with Cytofix/Cytoperm (registered trademark) buffering solution (BD-Pharmingen) at room temperature for 15 minutes, then, stained with a FITC-labeled-anti-IFN? monoclonal antibody (mouse IgG1). The stained cells were analyzed by flow cytometry. […]

[10] = system: NK cells; assay: NK cells cultured with IL-15 alone (K562 cytolytic activity and IFN? production); format: cell-based, human; details: newly isolated NK cells cultured 24 hours with 50 ng/mL IL-15, no DC
Experimental: as §4, §5

[11] = system: pseudo type VSV-E1E2; format: cell-based; remark: listed apart in the source
[12] = system: HCV; format: cell-based
[13] = NK cells co-cultured 24 hours with cytokine-stimulated N-DC

O=C(O)CN(CCN(CC(=O)O)CC(=O)O)CC(=O)O [EDTA]
percentage of GFP+ cell having VSV-E1E2 [1]: did not decrease

O=C[C@H](O)[C@@H](O)[C@@H](O)[C@H](O)CO [galactose]
percentage of GFP+ cell having VSV-E1E2 [1]: did not exert an influence

CpG ODN 2006
sensitivity against VSV? G-G (percentage of GFP+ cells) [2]: not influenced
percentage of VSV-E1E2-containing GFP+ cells [1]: decreases significantly
expression of CD83 and CD86 [3]: up-regulated

GM-CSF: recombinant human GM-CSF (PeproTech)
proportion of GFP+ cells (median) [1]: 1.5%

IL-12: cytokine (R&D Systems)
MICA/B expression [4]: did not induce MICA/B expression
MICA/B expression [5]: did not induce MICA/B expression

IL-15: cytokine (R&D Systems); claimed active ingredient, T cell growth factor stimulating dendritic cells
production of IFNa and IFNβ [6]: produced
activation of NK cells [7]: activated NK cells
production of IFNa and IFNβ [8]: produced
MICA/B expression [4]: could apparently induce MICA/B
IFN? production of NK cells [9, 13]: increase
cytolytic activity for K562 cells [9, 13]: increase
K562 cytolytic activity ([9]; trans well: NK cells and IL-15 (50 ng/mL)-stimulated N-DC separated by 0.4 μm membrane, 24 hours): did not show increase in cylolytic ability
MICA/B expression [5]: could apparently induce MICA/B
activation of NK cells (K562 cytolytic activity and IFN? production) [10]: could not activate NK cells

IL-18: cytokine (R&D Systems)
MICA/B expression [4]: did not induce MICA/B expression
MICA/B expression [5]: did not induce MICA/B expression

TNFa
sensitivity against VSV? G-G (percentage of GFP+ cells) [2]: decreased
percentage of VSV-E1E2-containing GFP+ cells [1]: decreased
MICA/B expression [4]: did not induce MICA/B expression
MICA/B expression [5]: did not induce MICA/B expression

mannan
infection of VSV-E1E2 in HepG2 cells [11]: did not inhibit
percentage of GFP+ cell having VSV-E1E2 [1]: decreased in dose-dependent manner
disturbing effect on infection of MDC with true HCV [12]: confirmed

polyI:C
sensitivity against VSV? G-G (percentage of GFP+ cells) [2]: decreased
percentage of VSV-E1E2-containing GFP+ cells [1]: decreased

B1: IL-4: recombinant human IL-4 (PeproTech) (protein, UniProt P05112 25-153, looked up)
Interleukin-4: HKCDITLQEIIKTLNSLTEQKTLCTELTVTDIFAASKNTTEKETFCRAATVLRQFYSHHEKDTRCLGATAQQFHRHKQLIRFLKRLDRNLWGLAGLNSCPVKEANQSTLENFLERLKTIMREKYSKCSS
sensitivity against VSV? G-G (percentage of GFP+ cells) [2]: not influenced
percentage of VSV-E1E2-containing GFP+ cells [1]: decreases significantly
